Measured values taken from the kinase profiling compilation of Christmann-Franck et al. (2016).

Assays:
Assay in all cases: radiometric filter-binding kinase assay
EPHA4 (human) = EPHA4 (human) (UniProt P54764)
IKBKE (human) = IKBKE (human) (UniProt Q14164)
AURKB (human) = AURKB (human) (UniProt Q96GD4)
MELK (human) = MELK (human) (UniProt Q14680)
CAMKK2 (human) = CAMKK2 (human) (UniProt Q96RR4)
MAPKAPK2 (human) = MAPKAPK2 (human) (UniProt P49137)
MINK1 (human) = MINK1 (human) (UniProt Q8N4C8)
MAP3K11 (human) = MAP3K11 (human) (UniProt Q16584)
IKBKB (human) = IKBKB (human) (UniProt O14920)
IGF1R (human) = IGF1R (human) (UniProt P08069)
PAK7 (human) = PAK7 (human) (UniProt Q9P286)
HIPK2 (human) = HIPK2 (human) (UniProt Q9H2X6)
PIM1 (human) = PIM1 (human) (UniProt P11309)
DYRK1A (human) = DYRK1A (human) (UniProt Q13627)
MAPK14 (human) = MAPK14 (human) (UniProt Q16539)
BRSK1 (human) = BRSK1 (human) (UniProt Q8TDC3)
CaMK1 (human) = CaMK1 (human) (UniProt Q14012)
PAK4 (human) = PAK4 (human) (UniProt O96013); conditions: compound 1.0 µM
DYRK2 (human) = DYRK2 (human) (UniProt Q92630)
MAPK15 (human) = MAPK15 (human) (UniProt Q8TD08)
MAPK8 (human) = MAPK8 (human) (UniProt P45983)
EPHB3 (human) = EPHB3 (human) (UniProt P54753)
CSNK1D (human) = CSNK1D (human) (UniProt P48730)
MAP2K2 (human) = MAP2K2 (human) (UniProt P36507)
CSK (human) = CSK (human) (UniProt P41240)
MAPK12 (human) = MAPK12 (human) (UniProt P53778)
PRKACA (human) = PRKACA (human) (UniProt P17612)
MAPKAPK5 (human) = MAPKAPK5 (human) (UniProt Q8IW41)
RIPK2 (human) = RIPK2 (human) (UniProt O43353)
EPHB2 (human) = EPHB2 (human) (UniProt P29323)
MKNK2 (human) = MKNK2 (human) (UniProt Q9HBH9)
MAP3K7 TAB1 (human) = MAP3K7 TAB1 (human) (UniProt Q15750+O43318)
MAPK9 (human) = MAPK9 (human) (UniProt P45984)
YES1 (human) = YES1 (human) (UniProt P07947)
Chain of YES1 (human) (P07947 whole entry, looked up): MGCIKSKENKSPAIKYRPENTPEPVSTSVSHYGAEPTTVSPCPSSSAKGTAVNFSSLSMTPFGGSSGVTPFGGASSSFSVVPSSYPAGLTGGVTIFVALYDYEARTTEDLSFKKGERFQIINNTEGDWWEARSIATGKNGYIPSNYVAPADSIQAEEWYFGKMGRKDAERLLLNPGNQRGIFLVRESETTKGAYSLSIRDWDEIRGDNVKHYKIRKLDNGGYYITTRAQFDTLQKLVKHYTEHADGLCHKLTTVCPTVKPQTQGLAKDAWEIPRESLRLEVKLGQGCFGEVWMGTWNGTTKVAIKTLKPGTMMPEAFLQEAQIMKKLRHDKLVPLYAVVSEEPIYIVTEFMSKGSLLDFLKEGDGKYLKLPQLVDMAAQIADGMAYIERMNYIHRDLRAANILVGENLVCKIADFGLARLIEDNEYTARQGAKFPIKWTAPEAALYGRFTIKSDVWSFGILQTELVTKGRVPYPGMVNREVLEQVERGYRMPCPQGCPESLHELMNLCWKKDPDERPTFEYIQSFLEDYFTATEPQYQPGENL

Chain of MELK (human) (Q14680 whole entry, looked up): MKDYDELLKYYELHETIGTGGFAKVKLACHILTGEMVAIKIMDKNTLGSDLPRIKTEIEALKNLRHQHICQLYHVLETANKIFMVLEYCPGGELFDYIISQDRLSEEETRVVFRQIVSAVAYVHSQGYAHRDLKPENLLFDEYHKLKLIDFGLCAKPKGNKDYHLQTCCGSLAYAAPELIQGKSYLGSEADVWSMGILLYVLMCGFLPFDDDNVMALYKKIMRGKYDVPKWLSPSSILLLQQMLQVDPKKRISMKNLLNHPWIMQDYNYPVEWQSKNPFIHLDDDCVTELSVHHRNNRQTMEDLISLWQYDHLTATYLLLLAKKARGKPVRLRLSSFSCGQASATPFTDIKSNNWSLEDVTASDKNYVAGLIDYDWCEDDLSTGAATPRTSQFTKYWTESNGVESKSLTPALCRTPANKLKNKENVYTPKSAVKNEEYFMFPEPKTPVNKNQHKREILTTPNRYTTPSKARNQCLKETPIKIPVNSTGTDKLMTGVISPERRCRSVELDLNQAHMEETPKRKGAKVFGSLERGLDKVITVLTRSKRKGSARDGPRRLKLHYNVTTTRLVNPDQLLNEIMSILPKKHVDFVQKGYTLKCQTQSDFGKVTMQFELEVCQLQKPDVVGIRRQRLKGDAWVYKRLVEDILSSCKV
Chain of EPHB3 (human) (P54753 whole entry, looked up): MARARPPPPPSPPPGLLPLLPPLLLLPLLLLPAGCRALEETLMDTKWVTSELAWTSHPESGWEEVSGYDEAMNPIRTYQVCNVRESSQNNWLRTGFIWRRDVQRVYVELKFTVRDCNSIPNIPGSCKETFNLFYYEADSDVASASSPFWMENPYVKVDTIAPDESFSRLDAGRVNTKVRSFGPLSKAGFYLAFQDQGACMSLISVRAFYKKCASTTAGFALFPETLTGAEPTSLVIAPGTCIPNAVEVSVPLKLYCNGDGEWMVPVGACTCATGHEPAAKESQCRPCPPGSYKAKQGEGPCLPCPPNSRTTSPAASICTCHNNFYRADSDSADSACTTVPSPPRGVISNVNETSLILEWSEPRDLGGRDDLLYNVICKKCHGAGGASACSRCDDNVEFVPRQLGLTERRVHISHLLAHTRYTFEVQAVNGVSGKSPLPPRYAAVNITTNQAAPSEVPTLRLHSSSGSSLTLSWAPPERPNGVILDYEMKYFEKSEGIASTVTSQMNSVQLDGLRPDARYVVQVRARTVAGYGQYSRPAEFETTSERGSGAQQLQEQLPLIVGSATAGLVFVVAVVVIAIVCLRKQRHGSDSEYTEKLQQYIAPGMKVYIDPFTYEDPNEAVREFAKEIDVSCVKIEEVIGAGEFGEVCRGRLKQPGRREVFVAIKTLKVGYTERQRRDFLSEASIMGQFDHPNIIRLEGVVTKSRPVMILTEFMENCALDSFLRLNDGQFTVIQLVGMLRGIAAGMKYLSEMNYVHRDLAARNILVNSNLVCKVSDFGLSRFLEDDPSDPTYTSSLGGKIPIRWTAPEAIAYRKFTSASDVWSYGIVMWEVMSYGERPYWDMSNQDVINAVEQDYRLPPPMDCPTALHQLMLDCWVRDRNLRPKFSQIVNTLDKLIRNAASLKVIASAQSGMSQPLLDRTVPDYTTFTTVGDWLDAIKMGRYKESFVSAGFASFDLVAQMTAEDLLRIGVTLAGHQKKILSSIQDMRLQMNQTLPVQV
Chain of CSNK1D (human) (P48730 whole entry, looked up): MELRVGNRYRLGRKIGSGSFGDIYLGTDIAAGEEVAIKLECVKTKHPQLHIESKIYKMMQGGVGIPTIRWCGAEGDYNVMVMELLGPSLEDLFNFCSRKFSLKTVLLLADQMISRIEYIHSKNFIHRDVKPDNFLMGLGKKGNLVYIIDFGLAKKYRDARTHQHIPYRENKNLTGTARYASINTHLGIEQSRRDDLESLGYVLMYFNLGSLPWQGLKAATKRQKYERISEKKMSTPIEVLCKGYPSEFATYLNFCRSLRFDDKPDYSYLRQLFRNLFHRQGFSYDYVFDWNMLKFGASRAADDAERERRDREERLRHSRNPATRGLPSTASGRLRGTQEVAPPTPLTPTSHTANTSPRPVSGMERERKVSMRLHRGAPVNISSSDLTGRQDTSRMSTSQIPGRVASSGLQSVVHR
Chain of EPHB2 (human) (P29323 whole entry, looked up): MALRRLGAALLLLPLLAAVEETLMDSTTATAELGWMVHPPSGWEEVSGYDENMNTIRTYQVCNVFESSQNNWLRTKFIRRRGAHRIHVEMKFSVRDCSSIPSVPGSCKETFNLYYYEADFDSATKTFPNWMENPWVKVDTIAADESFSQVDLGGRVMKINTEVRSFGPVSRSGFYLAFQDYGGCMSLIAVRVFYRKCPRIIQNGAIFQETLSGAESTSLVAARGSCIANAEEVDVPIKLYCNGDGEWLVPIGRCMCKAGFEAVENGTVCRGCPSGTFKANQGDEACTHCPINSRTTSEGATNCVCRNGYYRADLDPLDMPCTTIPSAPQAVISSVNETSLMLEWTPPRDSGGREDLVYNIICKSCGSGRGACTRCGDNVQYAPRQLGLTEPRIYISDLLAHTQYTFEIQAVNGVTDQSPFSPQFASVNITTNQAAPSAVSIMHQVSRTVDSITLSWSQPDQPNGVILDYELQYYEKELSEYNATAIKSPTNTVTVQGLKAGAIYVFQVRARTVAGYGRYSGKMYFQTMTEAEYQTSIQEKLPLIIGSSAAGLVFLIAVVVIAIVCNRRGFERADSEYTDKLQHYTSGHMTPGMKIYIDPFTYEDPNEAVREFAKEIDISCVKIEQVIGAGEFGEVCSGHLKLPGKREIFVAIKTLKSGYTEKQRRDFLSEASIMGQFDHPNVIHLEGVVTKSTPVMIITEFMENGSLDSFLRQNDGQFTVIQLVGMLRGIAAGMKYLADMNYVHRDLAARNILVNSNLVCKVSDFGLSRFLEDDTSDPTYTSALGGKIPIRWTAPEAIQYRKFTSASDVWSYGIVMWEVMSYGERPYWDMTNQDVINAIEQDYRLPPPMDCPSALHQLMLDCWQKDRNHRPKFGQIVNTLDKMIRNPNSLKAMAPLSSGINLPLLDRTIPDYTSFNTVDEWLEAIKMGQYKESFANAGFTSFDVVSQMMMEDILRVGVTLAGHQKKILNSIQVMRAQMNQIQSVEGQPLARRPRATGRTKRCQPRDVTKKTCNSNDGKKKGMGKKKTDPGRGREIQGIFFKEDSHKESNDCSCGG
Chain of MAPK12 (human) (P53778 whole entry, looked up): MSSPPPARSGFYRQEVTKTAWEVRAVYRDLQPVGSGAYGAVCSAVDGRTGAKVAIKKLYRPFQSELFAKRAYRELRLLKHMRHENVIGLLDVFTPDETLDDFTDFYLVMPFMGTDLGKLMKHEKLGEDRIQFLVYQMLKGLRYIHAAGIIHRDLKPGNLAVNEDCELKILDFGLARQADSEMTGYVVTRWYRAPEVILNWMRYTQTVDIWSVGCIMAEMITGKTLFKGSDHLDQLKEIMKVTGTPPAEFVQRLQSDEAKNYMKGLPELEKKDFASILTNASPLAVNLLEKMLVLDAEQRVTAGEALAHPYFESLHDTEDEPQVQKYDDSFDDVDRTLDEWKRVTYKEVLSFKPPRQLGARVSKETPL
Chain of IKBKB (human) (O14920 whole entry, looked up): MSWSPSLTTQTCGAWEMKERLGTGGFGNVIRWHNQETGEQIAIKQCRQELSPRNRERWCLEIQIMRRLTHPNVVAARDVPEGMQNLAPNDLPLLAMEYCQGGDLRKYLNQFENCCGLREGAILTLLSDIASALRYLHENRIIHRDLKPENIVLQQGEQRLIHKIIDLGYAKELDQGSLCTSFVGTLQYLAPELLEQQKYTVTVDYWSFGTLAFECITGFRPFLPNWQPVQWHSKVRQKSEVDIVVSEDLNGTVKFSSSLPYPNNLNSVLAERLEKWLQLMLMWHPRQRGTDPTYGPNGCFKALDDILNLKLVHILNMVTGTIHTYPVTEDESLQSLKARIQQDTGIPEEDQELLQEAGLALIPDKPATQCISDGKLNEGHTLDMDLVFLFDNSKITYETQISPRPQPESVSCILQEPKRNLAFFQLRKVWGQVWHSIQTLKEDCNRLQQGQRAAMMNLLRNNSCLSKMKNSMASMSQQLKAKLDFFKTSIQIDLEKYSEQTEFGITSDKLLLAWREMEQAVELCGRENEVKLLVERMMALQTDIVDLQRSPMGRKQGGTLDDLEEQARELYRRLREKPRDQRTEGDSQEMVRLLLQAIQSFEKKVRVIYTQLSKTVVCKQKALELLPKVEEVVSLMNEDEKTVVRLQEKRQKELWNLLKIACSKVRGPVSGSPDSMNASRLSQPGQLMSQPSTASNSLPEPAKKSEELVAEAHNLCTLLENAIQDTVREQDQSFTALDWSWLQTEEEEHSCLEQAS

For `Cc1cc(NC(=O)c2cccc(NC(=O)/C=C/CN(C)C)c2)ccc1Nc1nccc(-c2cccnc2)n1`, the residual activity (EPHA4 (human); compound 0.1 µM) was 87%, the residual activity (EPHA4 (human); compound 1.0 µM) was 80% and the residual activity (IKBKE (human); compound 0.1 µM) was 92%. The residual activity (IKBKE (human); compound 1.0 µM) was 94%, the residual activity (AURKB (human); compound 0.1 µM) was 87% and the residual activity (AURKB (human); compound 1.0 µM) was 86%. The residual activity (MELK (human); compound 0.1 µM) was 91%, the residual activity (MELK (human); compound 1.0 µM) was 63% and the residual activity (CAMKK2 (human); compound 1.0 µM) was 63%. The residual activity (MAPKAPK2 (human); compound 0.1 µM) was 102%, the residual activity (MAPKAPK2 (human); compound 1.0 µM) was 100% and the residual activity (MINK1 (human); compound 0.1 µM) was 94%. It also gave a residual activity (MINK1 (human); compound 1.0 µM) of 78%, a residual activity (MAP3K11 (human); compound 0.1 µM) of 95% and a residual activity (MAP3K11 (human); compound 1.0 µM) of 94%. For the same compound, the residual activity (IKBKB (human); compound 0.1 µM) was 62%, the residual activity (IKBKB (human); compound 1.0 µM) was 74% and the residual activity (IGF1R (human); compound 1.0 µM) was 87%. For the same compound, the residual activity (PAK7 (human); compound 0.1 µM) was 100%, the residual activity (PAK7 (human); compound 1.0 µM) was 82% and the residual activity (HIPK2 (human); compound 0.1 µM) was 92%. The residual activity (HIPK2 (human); compound 1.0 µM) was 99%, the residual activity (PIM1 (human); compound 0.1 µM) was 104% and the residual activity (PIM1 (human); compound 1.0 µM) was 89%. For the same compound, the residual activity (DYRK1A (human); compound 0.1 µM) was 98%, the residual activity (DYRK1A (human); compound 1.0 µM) was 84% and the residual activity (MAPK14 (human); compound 0.1 µM) was 105%. The residual activity (MAPK14 (human); compound 1.0 µM) was 110%, the residual activity (BRSK1 (human); compound 0.1 µM) was 99% and the residual activity (BRSK1 (human); compound 1.0 µM) was 87%. The residual activity (CaMK1 (human); compound 0.1 µM) was 92%, the residual activity (CaMK1 (human); compound 1.0 µM) was 86% and the residual activity (PAK4 (human)) was 78%. The residual activity (DYRK2 (human); compound 0.1 µM) was 73%, the residual activity (DYRK2 (human); compound 1.0 µM) was 72% and the residual activity (MAPK15 (human); compound 0.1 µM) was 90%. The residual activity (MAPK15 (human); compound 1.0 µM) was 64%, the residual activity (MAPK8 (human); compound 0.1 µM) was 13% and the residual activity (MAPK8 (human); compound 1.0 µM) was 6%. The residual activity (EPHB3 (human); compound 1.0 µM) was 105%, the residual activity (CSNK1D (human); compound 0.1 µM) was 89% and the residual activity (CSNK1D (human); compound 1.0 µM) was 57%. It also gave a residual activity (MAP2K2 (human); compound 0.1 µM) of 98%, a residual activity (MAP2K2 (human); compound 1.0 µM) of 92% and a residual activity (CSK (human); compound 0.1 µM) of 110%. The residual activity (CSK (human); compound 1.0 µM) was 93%, the residual activity (MAPK12 (human); compound 0.1 µM) was 99% and the residual activity (MAPK12 (human); compound 1.0 µM) was 95%. It also gave a residual activity (PRKACA (human); compound 0.1 µM) of 105%, a residual activity (PRKACA (human); compound 1.0 µM) of 93% and a residual activity (MAPKAPK5 (human); compound 0.1 µM) of 92%. For the same compound, the residual activity (MAPKAPK5 (human); compound 1.0 µM) was 82%, the residual activity (RIPK2 (human); compound 0.1 µM) was 82% and the residual activity (RIPK2 (human); compound 1.0 µM) was 49%. The residual activity (EPHB2 (human); compound 0.1 µM) was 101%, the residual activity (EPHB2 (human); compound 1.0 µM) was 97% and the residual activity (MKNK2 (human); compound 0.1 µM) was 84%. The residual activity (MKNK2 (human); compound 1.0 µM) was 67%, the residual activity (MAP3K7 TAB1 (human); compound 0.1 µM) was 90% and the residual activity (MAP3K7 TAB1 (human); compound 1.0 µM) was 66%. For the same compound, the residual activity (MAPK9 (human); compound 1.0 µM) was 17%, the residual activity (YES1 (human); compound 0.1 µM) was 87% and the residual activity (YES1 (human); compound 1.0 µM) was 39%.
`CC(C)(C#N)c1ccc(N2C(=O)OCc3cnc4ccc(-c5cnc6ccccc6c5)cc4c32)cc1` was tested, and the residual activity (EPHA4 (human); compound 1.0 µM) was 89%, the residual activity (EPHA4 (human); compound 10.0 µM) was 89% and the residual activity (IKBKE (human); compound 1.0 µM) was 111%. It also gave a residual activity (IKBKE (human); compound 10.0 µM) of 97%, a residual activity (AURKB (human); compound 1.0 µM) of 93% and a residual activity (AURKB (human); compound 10.0 µM) of 82%. For the same compound, the residual activity (MELK (human); compound 1.0 µM) was 49%, the residual activity (MELK (human); compound 10.0 µM) was 49% and the residual activity (CAMKK2 (human); compound 1.0 µM) was 69%. For the same compound, the residual activity (CAMKK2 (human); compound 10.0 µM) was 59%, the residual activity (MAPKAPK2 (human); compound 1.0 µM) was 115% and the residual activity (MINK1 (human); compound 1.0 µM) was 72%. The residual activity (MINK1 (human); compound 10.0 µM) was 55%, the residual activity (MAP3K11 (human); compound 1.0 µM) was 81% and the residual activity (MAP3K11 (human); compound 10.0 µM) was 83%. It also gave a residual activity (IKBKB (human); compound 1.0 µM) of 86%, a residual activity (IKBKB (human); compound 10.0 µM) of 87% and a residual activity (IGF1R (human); compound 1.0 µM) of 89%. The residual activity (IGF1R (human); compound 10.0 µM) was 67%, the residual activity (PAK7 (human); compound 1.0 µM) was 99% and the residual activity (PAK7 (human); compound 10.0 µM) was 80%. It also gave a residual activity (HIPK2 (human); compound 1.0 µM) of 99%, a residual activity (HIPK2 (human); compound 10.0 µM) of 114% and a residual activity (PIM1 (human); compound 1.0 µM) of 81%. The residual activity (PIM1 (human); compound 10.0 µM) was 73%, the residual activity (DYRK1A (human); compound 1.0 µM) was 89% and the residual activity (DYRK1A (human); compound 10.0 µM) was 83%. For the same compound, the residual activity (MAPK14 (human); compound 1.0 µM) was 93%, the residual activity (MAPK14 (human); compound 10.0 µM) was 134% and the residual activity (BRSK1 (human); compound 1.0 µM) was 97%. It also gave a residual activity (BRSK1 (human); compound 10.0 µM) of 86%, a residual activity (CaMK1 (human); compound 1.0 µM) of 73% and a residual activity (PAK4 (human)) of 94%. It also gave a residual activity (DYRK2 (human); compound 1.0 µM) of 73%, a residual activity (DYRK2 (human); compound 10.0 µM) of 85% and a residual activity (MAPK15 (human); compound 1.0 µM) of 73%. The residual activity (MAPK15 (human); compound 10.0 µM) was 67%, the residual activity (MAPK8 (human); compound 1.0 µM) was 106% and the residual activity (MAPK8 (human); compound 10.0 µM) was 109%. The residual activity (EPHB3 (human); compound 1.0 µM) was 116%, the residual activity (EPHB3 (human); compound 10.0 µM) was 103% and the residual activity (CSNK1D (human); compound 1.0 µM) was 92%. For the same compound, the residual activity (CSNK1D (human); compound 10.0 µM) was 95%, the residual activity (MAP2K2 (human); compound 1.0 µM) was 87% and the residual activity (MAP2K2 (human); compound 10.0 µM) was 75%. For the same compound, the residual activity (CSK (human); compound 1.0 µM) was 75%, the residual activity (CSK (human); compound 10.0 µM) was 89% and the residual activity (MAPK12 (human); compound 1.0 µM) was 88%. It also gave a residual activity (MAPK12 (human); compound 10.0 µM) of 100%, a residual activity (PRKACA (human); compound 10.0 µM) of 92% and a residual activity (MAPKAPK5 (human); compound 1.0 µM) of 82%. It also gave a residual activity (MAPKAPK5 (human); compound 10.0 µM) of 89%, a residual activity (RIPK2 (human); compound 1.0 µM) of 57% and a residual activity (RIPK2 (human); compound 10.0 µM) of 38%. The residual activity (EPHB2 (human); compound 1.0 µM) was 93%, the residual activity (EPHB2 (human); compound 10.0 µM) was 95% and the residual activity (MKNK2 (human); compound 1.0 µM) was 94%. It also gave a residual activity (MKNK2 (human); compound 10.0 µM) of 99%, a residual activity (MAP3K7 TAB1 (human); compound 1.0 µM) of 64% and a residual activity (MAP3K7 TAB1 (human); compound 10.0 µM) of 78%. The residual activity (MAPK9 (human); compound 10.0 µM) was 97%, the residual activity (YES1 (human); compound 1.0 µM) was 92% and the residual activity (YES1 (human); compound 10.0 µM) was 93%.
